What follows are compounds tested on MV-4-11 cells (assay: Cell Viability Assay in MV-4-11 Cells). Conditions: Homo sapiens, MV4-11, 72 h.
Format: cell-based
Outline: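 Luminescent ATP read-out (CellTiter-Glo) after 72 h compound treatment of MV-4-11 leukaemia cells (7,000 per well, IMDM plus 10% FBS). Values expressed relative to DMSO control and derived by four-parameter non-linear regression.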

Compound | IC50
Cc1cccc2ccnc(N(C(=O)c3ccc(C#N)cc3-c3cccnc3)[C@@H]3CCCNC3)c12 [Example 334, 4-cyano-N-(8-methyl-1-isoquinolyl)-N-[(3R)-3-piperidyl]-2-(3-pyridyl)benzamide] | > 10 µM
CNC(=O)c1ccc2c(N(C(=O)c3ccc(-c4cn(C)nn4)cc3F)[C@@H]3CCCNC3)nccc2c1 [Example 688, (R)-1-(2-fluoro-4-(1-methyl-1H-1,2,3-triazol-4-yl)-N-(piperidin-3-yl)benzamido)-N-methylisoquinoline-6-carboxamide] | > 4.5 µM

Same assay, conditions: Homo sapiens, MV4-11, 72 h, MV-4-11 cells, 72 h, Cell-Titer Glo; read-out: IC50

Compound | IC50
Cc1cccc2ccnc(N(C(=O)c3ccc(Nc4nccc(N5CCC[C@H](O)C5)n4)cc3F)[C@@H]3CCCNC3)c12 [Example 624, 2-fluoro-4-((4-((S)-3-hydroxypiperidin-1-yl)pyrimidin-2-yl)amino)-N-(8-methylisoquinolin-1-yl)-N—((R)-piperidin-3-yl)benzamide] | 0.18 µM
COc1cc(C)c2c(N(C(=O)c3ccc(-c4cn(C)nn4)cc3F)[C@@H]3CCCNC3)nccc2c1 [Example 619, (R)-2-fluoro-N-(6-methoxy-8-methylisoquinolin-1-yl)-4-(1-methyl-1H-1,2,3-triazol-4-yl)-N-(piperidin-3-yl)benzamide] | 0.038 µM
Cc1cccc2ccnc(N(C(=O)c3ccc(Nc4nccc(-c5ccc(O)cc5)n4)cc3F)[C@@H]3CCCNC3)c12 [Example 721, (R)-2-fluoro-4-((4-(4-hydroxyphenyl)pyrimidin-2-yl)amino)-N-(8-methylisoquinolin-1-yl)-N-(piperidin-3-yl)benzamide] | 0.14 µM
C#Cc1csc2c(N(C(=O)c3ccc(-c4cn(C)nn4)cc3F)[C@@H]3CCCNC3)nccc12 [Example 676, N-(3-ethynylthieno[2,3-c]704yridine-7-yl)-2-fluoro-4-(1-methyltriazol-4-yl)-N-[(3R)-3-piperidyl]benzamide] | 0.19 µM
Cc1cccc2ccnc(N(C(=O)c3ccc(-c4nnc(C5CC5)o4)cc3)[C@@H]3CCCNC3)c12 [Example 789, (R)-4-(5-cyclopropyl-1,3,4-oxadiazol-2-yl)-N-(8-methylisoquinolin-1-yl)-N-(piperidin-3-yl)benzamide] | 0.097 µM
Cc1cccc2ccnc(N(C(=O)c3ccc(C#N)c(-c4cccc(-c5cn[nH]c5)c4)c3)[C@@H]3CCCNC3)c12 [Example 329, (R)-6-cyano-N-(8-methylisoquinolin-1-yl)-N-(piperidin-3-yl)-3′-(1H-pyrazol-4-yl)-[1,1′-biphenyl]-3-carboxamide] | 0.072 µM
COc1ccc(C)c2c(N(C(=O)c3ccc(-c4nnc(C)s4)nc3)[C@@H]3CCCNC3)nccc12 [Example 902, N-(5-methoxy-8-methyl-1-isoquinolyl)-6-(5-methyl-1,3,4-thiadiazol-2-yl)-N-[(3R)-3-piperidyl] pyridine-3-carboxamide] | 0.383 µM
COc1cc(C)c2c(N(C(=O)c3ccc(-c4nnc(C)s4)nc3)[C@@H]3CCCNC3)nccc2c1 [Example 901, N-(6-methoxy-8-methyl-1-isoquinolyl)-6-(5-methyl-1,3,4-thiadiazol-2-yl)-N-[(3R)-3-piperidyl]pyridine-3-carboxamide] | 0.048 µM
COCCc1nnc(-c2ccc(C(=O)N(c3nccc4scc(C)c34)[C@@H]3CCCNC3)cn2)s1 [Example 913, 6-[5-(2-methoxyethyl)-1,3,4-thiadiazol-2-yl]-N-(3-methylthieno[3,2-c]pyridin-4-yl)-N-[(3R)-3-piperidyl]pyridine-3-carboxamide] | 0.13 µM
COCCN(C)c1ccnc(Nc2ccc(C(=O)N(c3nccc4cccc(C)c34)[C@@H]3CCCNC3)c(F)c2)n1 [Example 742, (R)-2-fluoro-4-((4-((2-methoxyethyl)(methyl)amino)pyrimidin-2-yl)amino)-N-(8-methylisoquinolin-1-yl)-N-(piperidin-3-yl)benzamide] | 0.082 µM
Cn1cc(-c2ccc(C(=O)N(c3nccc4cc(F)ccc34)[C@@H]3CCCNC3)cc2)nn1 [Example 805, (R)—N-(6-fluoroisoquinolin-1-yl)-4-(1-methyl-1H-1,2,3-triazol-4-yl)-N-(piperidin-3-yl)benzamide] | 0.82 µM
COC(=O)CCC#Cc1cccc(C(=O)N(c2nccc3cccc(C)c23)[C@@H]2CCCNC2)c1 [Example 589, methyl (R)-5-(3-((8-methylisoquinolin-1-yl)(piperidin-3-yl)carbamoyl)phenyl)pent-4-ynoate] | 1 µM
COc1cc(C)c2c(N(C(=O)c3ccc(-c4nnc(C)s4)nc3)[C@@H]3CCCNC3)nccc2c1F [Example 911, N-(5-fluoro-6-methoxy-8-methyl-1-isoquinolyl)-6-(5-methyl-1,3,4-thiadiazol-2-yl)-N-[(3R)-3-piperidyl]pyridine-3-carboxamide] | 0.14 µM
Cc1cc(C2CCN(C(=O)N(c3nccc4cc(F)cc(C)c34)[C@@H]3CCCNC3)CC2)on1 [Example 658, (R)—N-(6-fluoro-8-methylisoquinolin-1-yl)-4-(3-methylisoxazol-5-yl)-N-(piperidin-3-yl)piperidine-1-carboxamide] | 0.61 µM
Cc1csc2ccnc(N(C(=O)c3ccc(-c4nnn5c4CN(C)CC5)cc3F)[C@@H]3CCCNC3)c12 [Example 923, 2-fluoro-4-(5-methyl-6,7-dihydro-4H-triazolo[1,5-a]pyrazin-3-yl)-N-(3-methylthieno[3,2-c]pyridin-4-yl)-N-[(3R)-3-piperidyl]benzamide] | > 1 µM
Cc1cccc2ccnc(N(C(=O)c3ccc(Nc4nccc(NCC#N)n4)cc3F)[C@@H]3CCCNC3)c12 [Example 950, (R)-4-((4-((cyanomethyl)amino)pyrimidin-2-yl)amino)-2-fluoro-N-(8-methylisoquinolin-1-yl)-N-(piperidin-3-yl)benzamide] | 0.051 µM

Further lines, results first:

IC50 | Compound
0.046 µM | Cc1nnc(-c2ccc(C(=O)N(c3nccc4cc(-c5nccs5)cc(C)c34)[C@@H]3CCCNC3)c(F)c2)s1 (racemic) [Example 733, 2-fluoro-4-(5-methyl-1,3,4-thiadiazol-2-yl)-N-(8-methyl-6-thiazol-2-yl-1-isoquinolyl)-N-[rac-(3R)-3-piperidyl] benzamide]
0.23 µM | NC(=O)c1ccc(-c2cc3c(N(C(=O)c4ccc(-n5nnc6cccnc65)cc4F)[C@@H]4CCCNC4)nccc3s2)cc1F [Example 567, 2-fluoro-4-[4-[[2-fluoro-4-(triazolo[4,5-b]pyridin-3-yl)benzoyl]-[(3R)-3-piperidyl]amino]thieno[3,2-c]pyridin-2-yl]benzamide]
0.4 µM | Cc1cc(-c2cc3c(N(C(=O)c4ccc(-n5nnc6cccnc65)cc4F)[C@@H]4CCCNC4)nccc3s2)cc(C)c1C(N)=O [Example 606, (R)-4-(3H-[1,2,3]triazolo[4,5-b]pyridin-3-yl)-N-(2-(4-carbamoyl-3,5-dimethylphenyl)thieno[3,2-c]pyridin-4-yl)-2-fluoro-N-(piperidin-3-yl)benzamide]
0.52 µM | Cn1cc(-c2ccc(C(=O)N(c3nccc4c(F)cccc34)[C@@H]3CCCNC3)c(F)c2)nn1 [Example 759, (R)-2-fluoro-N-(5-fluoroisoquinolin-1-yl)-4-(1-methyl-1H-1,2,3-triazol-4-yl)-N-(piperidin-3-yl)benzamide]
0.24 µM | COc1ccc2c(N(C(=O)c3ccc(-c4cn(C)nn4)cc3F)[C@@H]3CCCNC3)nccc2c1 [Example 471, (R)-2-fluoro-N-(6-methoxyisoquinolin-1-yl)-4-(1-methyl-1H-1,2,3-triazol-4-yl)-N-(piperidin-3-yl)benzamide]
0.23 µM | CNC(=O)c1ccc2c(N(C(=O)c3ccc(-n4nnc5cccnc54)cc3F)[C@@H]3CCCNC3)nccc2c1 [Example 369, (R)-1-(4-(3H-[1,2,3]triazolo[4,5-b]pyridin-3-yl)-2-fluoro-N-(piperidin-3-yl)benzamido)-N-methylisoquinoline-6-carboxamide]
0.64 µM | C#Cc1cc2c(N(C(=O)c3ccc(-n4nnc5cccnc54)cc3F)[C@@H]3CCCNC3)nccc2s1 [Example 382, N-(2-ethynylthieno[3,2-c]pyridin-4-yl)-2-fluoro-N-[(3R)-3-piperidyl]-4-(triazolo[4,5-b]pyridin-3-yl)benzamide]
0.65 µM | O=C(c1ccc(-n2nnc3cccnc32)cc1F)N(c1nccc2sc(-c3ccnnc3)cc12)[C@@H]1CCCNC1 [Example 455, 2-fluoro-N-[(3R)-3-piperidyl]-N-(2-pyridazin-4-ylthieno[3,2-c]pyridin-4-yl)-4-(triazolo[4,5-b]pyridin-3-yl)benzamide]
0.65 µM | Cc1cc2c(N(C(=O)c3ccc(-n4nnc5cccnc54)cc3F)[C@@H]3CCCNC3)nccc2s1 [Example 739, (R)-4-(3H-[1,2,3]triazolo[4,5-b]pyridin-3-yl)-2-fluoro-N-(2-methylthieno[3,2-c]pyridin-4-yl)-N-(piperidin-3-yl)benzamide]
0.24 µM | CC(=O)c1ccc(-c2cc3c(N(C(=O)c4ccc(-n5nnc6cccnc65)cc4F)[C@@H]4CCCNC4)nccc3s2)cc1 [Example 603, N-[2-(4-acetylphenyl)thieno[3,2-c]pyridin-4-yl]-2-fluoro-N-[(3R)-3-piperidyl]-4-(triazolo[4,5-b]pyridin-3-yl) benzamide]
0.034 µM | CCc1nnc(-c2ccc(C(=O)N(c3nccc4cccc(C)c34)[C@@H]3CCCNC3)c(F)c2)s1 [Example 837, (R)-4-(5-ethyl-1,3,4-thiadiazol-2-yl)-2-fluoro-N-(8-methylisoquinolin-1-yl)-N-(piperidin-3-yl)benzamide]
0.54 µM | Cc1cccc2ccnc(N(C(=O)c3ccc(-c4cncnc4N)cc3F)[C@@H]3CCCNC3)c12 [Example 353, (R)-4-(4-aminopyrimidin-5-yl)-2-fluoro-N-(8-methylisoquinolin-1-yl)-N-(piperidin-3-yl)benzamide]

Same assay, conditions: MV-4-11 cells, 72 h, Cell-Titer Glo; read-out: IC50

IC50 | Compound
0.22 µM | Cn1cc(-c2ccc(C(=O)N(c3nccc4cc(-c5ccccc5)ccc34)[C@@H]3CCCNC3)c(F)c2)nn1 [Example 579, (R)-2-fluoro-4-(1-methyl-1H-1,2,3-triazol-4-yl)-N-(6-phenylisoquinolin-1-yl)-N-(piperidin-3-yl)benzamide]

— patent publication US20240400555A1 (Initial Therapeutics, Inc., priority 2023, published 2024)
